Patent US20250304952A1, “DNA ELEMENT RESPONSIVE TO EXTRACHROMOSOMAL DNA IN CANCER CELLS” (The Board of Trustees of the Leland Stanford Junior …, priority 2021, published 2025)

Experiments:
Type in all cases: cell-based, human
[1] = tested on: ecDNA hubs in TetO-GFP COLO320-DM cells; assay: Live cell imaging of TetR-eGFP-labeled ecDNAs through cell division; conditions: 500 nM JQ1
Description: sgRNA was designed by E-CRISP (http://www.e-crisp.org/E-CRISP/designcrispr.html) targeting ˜0.5 kb upstream of MYC transcription start site or N-terminal BRD4 gene. The sgRNA was cloned into the modified pX330 (Addgene, Cat #42230) construct co-expressing wild type SpCas9 and a PGK-Venus cassette. ˜500 bp homology arms were PCR amplified from COLO320-DM cells and cloned into a pUC19 donor vector together with ˜96 copies of TetO array and a blasticidin selection cassette
(Addgene #118713) for ecDNA-TetO array or with HaloTag (Addgene #139747) for BRD4. 2 μg of the donor vector and 1 μg of the sgRNA vector were transfected into COLO320-DM cells by lipofectamine 3000. For ecDNA-TetO array, blasticidin (10 ug/ml) selection was applied after 7 days. For BRD4-HaloTag knock-in, 100 nM HaloTag ligand JF549 (a kind gift from Luke Lavis's lab at Janelia Research Campus) was applied to the cells followed by washing and FACS sorting. Individual clones were selected, genotyped by PCR and verified by Sanger sequencing before being tested for imaging. […]
To monitor ecDNA dynamics within the nucleus, the COLO320-DM TetO-eGFP cell line was transfected with the PiggyBac vector expressing H2B-SNAPf and the super PiggyBac transposase (2:1 ratio) as described previously51. […] TetO labeled ecDNA was similarly analyzed as described in previous DNA/RNA FISH section. […]

[2] = tested on: COLO320-DM cells and COLO320-HSR cells; assay: JQ1 dose titration: cell viability (CellTiterGlo) and cell proliferation; conditions: viability 48 hours, proliferation over 72 hours
Description: Cells were plated in 96-well plates at 25,000 cells/well in triplicate and incubated either with JQ1 (Sigma-Aldrich SML1524) at the indicated concentrations or an equivalent volume of DMSO for 48 hours. Cell viability was measured using the CellTiterGlo assay kit (Promega G7572) in triplicate with luminescence measured on SpectraMax M5 plate reader with an integration time of 1 second per well. Luminescence was normalized to the DMSO treated controls and p values calculated using a Student's t-test comparing biological triplicates.
Cells were plated in 96-well plates at 10,000 cells/well and incubated either with JQ1 (Sigma-Aldrich SML1524) at the indicated concentrations or an equivalent volume of DMSO. Every 24 hours, cells were harvested and counted on Countess 3 Automated Cell Counter (Thermo Fisher) with Trypan Blue used to assess cell viability. P values were calculated using a Student's t-test comparing biological triplicates.

[3] = tested on: MYC transcription from ecDNA in COLO320-DM; assay: MYC transcription probability by joint nascent RNA and DNA FISH; conditions: 500 nM JQ1, 6 hours, RNA normalized to ecDNA copy number
Description: To quantify the MYC gene expression on the ecDNAs, we ordered the RNA FISH probes conjugated with a Quasar 570 dye (Biosearch Technologies) targeting to the intronic region of human (hg19) MYC gene for detection of nascent RNA transcript. We also ordered the RNA FISH probes conjugated with a Quasar 670 dye targeting to the exonic region of human MYC gene for detection of both mature and nascent RNA transcripts. […]
To characterize the ecDNA hub shape and size, we employed the synthetic model—Surfaces object from Imaris (version 9.1, Bitplane) and applied a Gaussian filter (σ=1 voxel in xy) and background subtraction for optimal segmentation and quantification of ecDNA hubs. ecDNA hubs containing connected voxels were sorted by size and singleton ecDNAs were separated from ecDNA hubs (minimal two ecDNA molecules).
To measure the number of ecDNA or nascent transcripts, we localized the voxels corresponding to the local maximum of identified DNA or RNA FISH signal using the Imaris spots function module. We validated the accuracy of interphase ecDNA counting by comparing to quantification of ecDNA number by metaphase FISH as well as copy number estimated by whole genome sequencing FIG. 5f). […]

## Cc1sc2c(c1C)C(c1ccc(Cl)cc1)=N[C@@H](CC(=O)OC(C)(C)C)c1nnc(C)n1-2 [JQ1]
[1]
  ecDNA hub assembly following mitosis: blocked
[2]
  cell killing, COLO320-DM versus COLO320-HSR: modest preferential killing of COLO320-DM cells over HSR cells
[3]
  reduction of MYC transcription probability per ecDNA copy: four-fold
